Source: patent publication US9533987B2, “Heterocyclic derivates” (KALVISTA PHARMACEUTICALS LIMITED, priority 2013, dated 2017)

Tests used:
Assay type in all cases: biochemical
Human KLK1 = Human KLK1 (Homo sapiens (Human), UniProt P06870); test: Determination of the IC50 for KLK1 (fluorogenic substrate H-DVal-Leu-Arg-AFC); settings: 37° C.
Description: Determination of the IC50 for KLK1
(§1) Human KLK1 (Callbiochem) was incubated at 37° C. with the fluorogenic substrate H-DVal-Leu-Arg-AFC and various concentrations of the test compound. Residual enzyme activity (initial rate of reaction) was determined by measuring the change in […] at 410 nm and the IC50 value for the test compound was determined.

Human plasma kallikrein = Human plasma kallikrein (Homo sapiens (Human), UniProt P03952); test: Determination of the IC50 for plasma kallikrein (fluorogenic substrate H-DPro-Phe-Arg-AFC); settings: 37° C., read-out: IC50 (human PKaI)
Description: Determination of the IC50 for Plasma Kallikrein
as §1, with “plasma kallikrein (Protogen)” for “KLK1 (Callbiochem)”, “H-DPro-Phe-Arg-AFC” for “H-DVal-Leu-Arg-AFC”

Factor XIIa = Factor XIIa (Homo sapiens (Human), UniProt P00748); test: Determination of enzyme selectivity, Factor XIIa; settings: substrate at Km concentration
Description: Determination of Enzyme Selectivity
Human serine protease enzymes plasmin, thrombin, trypsin, Factor Xa and Factor XIIa were assayed for enzymatic activity using an appropriate fluorogenic substrate. Protease activity was measured by monitoring the accumulation of liberated fluorescence from the substrate over 5 minutes. The linear rate of fluorescence increase per minute was expressed as percentage (%) activity. The Km for the cleavage of each substrate was determined by standard transformation of the Michaelis-Menten equation.

Human plasma kallikrein, sequence (P03952 391-638): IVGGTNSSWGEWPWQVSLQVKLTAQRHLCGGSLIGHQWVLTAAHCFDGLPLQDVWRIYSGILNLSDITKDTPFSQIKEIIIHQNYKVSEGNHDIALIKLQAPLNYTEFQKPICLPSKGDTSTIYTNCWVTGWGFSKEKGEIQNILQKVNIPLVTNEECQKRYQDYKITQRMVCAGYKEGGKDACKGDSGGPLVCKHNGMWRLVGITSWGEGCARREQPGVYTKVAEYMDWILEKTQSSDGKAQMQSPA
Human plasma kallikrein, sequence (P03952 20-390 partner): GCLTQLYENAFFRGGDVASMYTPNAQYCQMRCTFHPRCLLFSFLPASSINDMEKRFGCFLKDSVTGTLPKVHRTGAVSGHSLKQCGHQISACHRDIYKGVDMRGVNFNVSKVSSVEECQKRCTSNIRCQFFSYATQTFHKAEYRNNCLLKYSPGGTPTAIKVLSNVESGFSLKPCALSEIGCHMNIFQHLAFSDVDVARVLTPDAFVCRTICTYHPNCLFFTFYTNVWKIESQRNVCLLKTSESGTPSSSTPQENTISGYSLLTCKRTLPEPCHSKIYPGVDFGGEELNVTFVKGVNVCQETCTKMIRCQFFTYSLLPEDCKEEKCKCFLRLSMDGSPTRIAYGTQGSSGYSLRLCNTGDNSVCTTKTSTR
Human KLK1, sequence (P06870 25-262): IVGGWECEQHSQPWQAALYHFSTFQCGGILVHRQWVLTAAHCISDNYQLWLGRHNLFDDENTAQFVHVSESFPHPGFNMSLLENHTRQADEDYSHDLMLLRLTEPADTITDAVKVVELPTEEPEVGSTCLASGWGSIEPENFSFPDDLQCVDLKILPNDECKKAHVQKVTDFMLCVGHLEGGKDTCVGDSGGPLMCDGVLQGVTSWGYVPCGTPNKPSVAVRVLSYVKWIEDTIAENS
Factor XIIa, sequence (P00748 373-615): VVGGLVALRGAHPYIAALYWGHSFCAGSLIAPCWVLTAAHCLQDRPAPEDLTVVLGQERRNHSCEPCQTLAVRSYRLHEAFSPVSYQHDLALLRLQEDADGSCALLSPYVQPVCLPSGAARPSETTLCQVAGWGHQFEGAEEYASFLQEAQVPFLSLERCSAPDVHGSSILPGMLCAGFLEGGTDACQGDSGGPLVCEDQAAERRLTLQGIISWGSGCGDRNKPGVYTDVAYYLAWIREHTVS

Row | Compound | IC50 (Human KLK1) | IC50 (Human plasma kallikrein) | IC50 (Factor XIIa)
1 | Cc1cnn(Cc2ccc(Cn3cc(C(=O)NCc4ccc5[nH]ccc5c4)c(C(F)(F)F)n3)cc2)c1 [Example 112, 1-[4-(4-Methyl-pyrazol-1-ylmethyl)-benzyl]-3-trifluoromethyl-1H-pyrazole-4-carboxylic acid (1H-indol-5-ylmethyl)-amide] | > 10 µM | 0.0606 µM | > 10000 nM
2 | Nc1nccc2cc(CNC(=O)c3cn(Cc4ccnc(N5CCC(F)(F)C5)c4)nc3C(F)(F)F)ccc12 [Example 56, 1-[2-(3,3-Difluoro-pyrrolidin-1-yl)-pyridin-4-ylmethyl]-3-trifluoromethyl-1H-pyrazole-4-carboxylic acid (1-amino-isoquinolin-6-ylmethyl)-amide] | > 10 µM | 0.0718 µM | > 10000 nM
3 | Cc1cnn(Cc2ccc(Cn3nc(C)c(C(=O)NCc4ccc5c(N)nccc5c4)c3C)cc2)c1 [Example 34, 3,5-Dimethyl-1-[4-(4-methyl-pyrazol-1-ylmethyl)-benzyl]-1H-pyrazole-4-carboxylic acid (1-amino-isoquinolin-6-ylmethyl)-amide] | 18.2 µM | 0.142 µM | > 40000 nM
4 | Nc1nccc2cc(CNC(=O)c3cnn(CCc4ccc5c(c4)OCCO5)c3)ccc12 [Example 45, 1-[2-(2,3-Dihydro-benzo[1,4]dioxin-6-yl)-ethyl]-1H-pyrazole-4-carboxylic acid (1-amino-isoquinolin-6-ylmethyl)-amide] | 18.6 µM | 3.06 µM | > 40000 nM
5 | O=C(NCc1cnc2[nH]ccc2c1)c1cnn(Cc2cccc(Oc3ccccc3)c2)c1 [Example 108, 1-(3-Phenoxy-benzyl)-1H-pyrazole-4-carboxylic acid (1H-pyrrolo[2,3-b]pyridin-5-ylmethyl)-amide] | 20.6 µM | 22 µM | > 40000 nM
6 | Cc1nc(C)c(N(C)Cc2ccc(Cn3cc(C(=O)NCc4cnc5[nH]ccc5c4)cn3)cc2)s1 [Example 105, 1-(4-{[(2,4-Dimethyl-thiazol-5-yl)-methyl-amino]-methyl}-benzyl)-1H-pyrazole-4-carboxylic acid (1H-pyrrolo[2,3-b]pyridin-5-ylmethyl)-amide] | > 40 µM | 17 µM | > 40000 nM
7 | Cc1cnn(Cc2ccc(Cn3cc(C(=O)NCc4cccc5[nH]ccc45)c(C(F)(F)F)n3)cc2)c1 [Example 123, 1-[4-(4-Methyl-pyrazol-1-ylmethyl)-benzyl]-3-trifluoromethyl-1H-pyrazole-4-carboxylic acid (1H-indol-4-ylmethyl)-amide] | > 10 µM | 0.545 µM | > 10000 nM
8 | Cc1cnn(Cc2ccc(Cn3cc(C(=O)NCc4cc5cc[nH]c5nc4C)nn3)cc2)c1 [Example 116, 1-[4-(4-Methyl-pyrazol-1-ylmethyl)-benzyl]-1H-[1,2,3]triazole-4-carboxylic acid (6-methyl-1H-pyrrolo[2,3-b]pyridin-5-ylmethyl)-amide] | > 10 µM | 0.507 µM | > 10000 nM
9 | Cc1cnn(Cc2ccc(Cn3cc(C(=O)NCc4cnc5[nH]ccc5c4)nn3)cc2)c1 [Example 115, 1-[4-(4-Methyl-pyrazol-1-ylmethyl)-benzyl]-1H-[1,2,3]triazole-4-carboxylic acid (1H-pyrrolo[2,3-b]pyridin-5-ylmethyl)-amide] | > 10 µM | 0.177 µM | > 10000 nM
10 | Cc1nc(C)c(N(C)Cc2ccc(Cn3cc(C(=O)NCc4ccc5c(N)nccc5c4)cn3)cc2)s1 [Example 46, 1-(4-{[(2,4-Dimethyl-thiazol-5-yl)-methyl-amino]-methyl}-benzyl)-1H-pyrazole-4-carboxylic acid (1-amino-isoquinolin-6-ylmethyl)-amide] |  |  | > 40000 nM
11 | C[C@H]1CCCN1c1ccc(Cn2cc(C(=O)NCc3ccc4c(N)nccc4c3)c(C(F)(F)F)n2)cn1 [Example 62, 1-[6-((S)-2-Methyl-pyrrolidin-1-yl)-pyridin-3-ylmethyl]-3-trifluoromethyl-1H-pyrazole-4-carboxylic acid (1-amino-isoquinolin-6-ylmethyl)-amide] | > 10 µM | 0.0136 µM | > 10000 nM
12 | CCOc1cc(Cn2cc(C(=O)NCc3ccc4c(N)nccc4c3)c(C(F)(F)F)n2)ccn1 [Example 80, 1-(2-Ethoxy-pyridin-4-ylmethyl)-3-trifluoromethyl-1H-pyrazole-4-carboxylic acid (1-amino-isoquinolin-6-ylmethyl)-amide] | 9.28 µM | 0.206 µM | 
13 | Nc1nccc2cc(CNC(=O)c3cn(Cc4ccc(OCC(F)(F)F)nc4)nc3C3CC3)ccc12 [Example 92, 3-Cyclopropyl-1-[6-(2,2,2-trifluoro-ethoxy)-pyridin-3-ylmethyl]-1H-pyrazole-4-carboxylic acid (1-amino-isoquinolin-6-ylmethyl)-amide] | > 10 µM | 0.109 µM | 

Further lines, results first:

Row | IC50 (Human KLK1) | IC50 (Human plasma kallikrein) | IC50 (Factor XIIa) | Compound
14 | 4 µM | 0.00584 µM | > 1000 nM | C[C@H]1CCN(c2ccc(Cn3cc(C(=O)NCc4ccc5c(N)nccc5c4)c(C(F)(F)F)n3)cn2)C1 [Example 59, 1-[6-((S)-3-Methyl-pyrrolidin-1-yl)-pyridin-3-ylmethyl]-3-trifluoromethyl-1H-pyrazole-4-carboxylic acid (1-amino-isoquinolin-6-ylmethyl)-amide]
15 | 11.7 µM | 0.576 µM | > 40000 nM | Nc1nccc2cc(CNC(=O)c3cnn(Cc4ccnc(N5CCCC5)c4)c3C(F)(F)F)ccc12 [Example 51, 1-(2-Pyrrolidin-1-yl-pyridin-4-ylmethyl)-5-trifluoromethyl-1H-pyrazole-4-carboxylic acid (1-amino-isoquinolin-6-ylmethyl)-amide]
16 | 5.16 µM | 0.00214 µM | > 10000 nM | Cc1cnn(Cc2ccc(Cn3cc(C(=O)NCc4ccc5c(N)nccc5c4)c(C(C)C)n3)cc2)c1 [Example 13, 3-Isopropyl-1-[4-(4-methyl-pyrazol-1-ylmethyl)-benzyl]-1H-pyrazole-4-carboxylic acid (1-amino-isoquinolin-6-ylmethyl)-amide]
17 | 3.53 µM | 0.00067 µM | > 10000 nM | Cc1cnn(Cc2ccc(Cn3cc(C(=O)NCc4ccc5c(N)nccc5c4)c(N)n3)cc2)c1 [Example 37, 3-Amino-1-[4-(4-methyl-pyrazol-1-ylmethyl)-benzyl]-1H-pyrazole-4-carboxylic acid (1-amino-isoquinolin-6-ylmethyl)-amide]
18 | 3.81 µM | 0.0792 µM | > 10000 nM | CCOc1ccc(Cn2cc(C(=O)NCc3ccc4c(N)nccc4c3)c(C(F)(F)F)n2)cn1 [Example 55, 1-(6-Ethoxy-pyridin-3-ylmethyl)-3-trifluoromethyl-1H-pyrazole-4-carboxylic acid (1-amino-isoquinolin-6-ylmethyl)-amide]
19 | 8.05 µM | 0.00168 µM | > 10000 nM | Cc1cnn(Cc2ccc(Cn3cc(C(=O)NCc4ccc5c(N)nccc5c4)c(C(F)F)n3)cc2)c1 [Example 39, 3-Difluoromethyl-1-[4-(4-methyl-pyrazol-1-ylmethyl)-benzyl]-1H-pyrazole-4-carboxylic acid (1-amino-isoquinolin-6-ylmethyl)-amide]
20 | 9.57 µM | 0.00961 µM | > 10000 nM | Nc1nccc2cc(CNC(=O)c3cn(Cc4ccc(N5CC[C@H](F)C5)nc4)nc3C(F)(F)F)ccc12 [Example 60, 1-[6-((S)-3-Fluoro-pyrrolidin-1-yl)-pyridin-3-ylmethyl]-3-trifluoromethyl-1H-pyrazole-4-carboxylic acid (1-amino-isoquinolin-6-ylmethyl)-amide]
21 | 9.76 µM | 0.059 µM | > 10000 nM | C[C@H]1CCN(c2cc(Cn3cc(C(=O)NCc4ccc5c(N)nccc5c4)c(C(F)(F)F)n3)ccn2)C1 [Example 68, 1-[2-((S)-3-Methyl-pyrrolidin-1-yl)-pyridin-4-ylmethyl]-3-trifluoromethyl-1H-pyrazole-4-carboxylic acid (1-amino-isoquinolin-6-ylmethyl)-amide]
22 | 15.8 µM | 2.03 µM | > 40000 nM | Nc1nccc2cc(CNC(=O)c3cnn(Cc4cccc(Oc5ccccc5)n4)c3)ccc12 [Example 47, 1-(6-Phenoxy-pyridin-2-ylmethyl)-1H-pyrazole-4-carboxylic acid (1-amino-isoquinolin-6-ylmethyl)-amide]
23 | 5.97 µM | 0.00462 µM | > 10000 nM | Cc1cnn(Cc2ccc(Cn3cc(C(=O)NCc4ccc5c(N)nccc5c4)c(C4CCC4)n3)cc2)c1 [Example 14, 3-Cyclobutyl-1-[4-(4-methyl-pyrazol-1-ylmethyl)-benzyl]-1H-pyrazole-4-carboxylic acid (1-amino-isoquinolin-6-ylmethyl)-amide]
24 | 7.66 µM | 0.0181 µM | > 10000 nM | Nc1nccc2cc(CNC(=O)c3cn(Cc4ccc(N5CC[C@@H](F)C5)nc4)nc3C(F)(F)F)ccc12 [Example 61, 1-[6-((R)-3-Fluoro-pyrrolidin-1-yl)-pyridin-3-ylmethyl]-3-trifluoromethyl-1H-pyrazole-4-carboxylic acid (1-amino-isoquinolin-6-ylmethyl)-amide]
25 | 1.3 µM | 0.0983 µM |  | CCOc1ncc(Cn2cc(C(=O)NCc3ccc4c(N)nccc4c3)c(C(F)(F)F)n2)cc1F [Example 75, 1-(6-Ethoxy-5-fluoro-pyridin-3-ylmethyl)-3-trifluoromethyl-1H-pyrazole-4-carboxylic acid (1-amino-isoquinolin-6-ylmethyl)-amide]
